Read-outs that look alike come from different tables or passages of the source.
Legend:
[1] = U.S. Pat. No. 4,382,892; Antimicrobial Agent & Chemotherapy, Vol. 29, 163-164 (1986); cited from earlier work
[2] = tested on: mice; test: Acute toxicity in mice; details: p.o.
[3] = Stability of S-compound in aqueous solution; assay type: physicochemical; details: 0.5% (wt./vol.) aqueous solution, pH 3 to 10, 2 weeks
[4] = Antimicrobial activity of Ofloxacin and S-compound (general statement); details: compared with Ofloxacin

Row | Structure (SMILES) | antimicrobial activities [1] | LD50 (acute toxicity) [2] [mg/kg] | decomposition (residual amount of S-compound) [3] | antimicrobial activities [4]
1 | CC1COc2c(N3CCN(C)CC3)c(F)cc3c(=O)c(C(=O)O)cn1c23 (racemic) [Ofloxacin, (±)-9-fluoro-3-methyl-10-(4-methyl-1-piperazinyl)-7-oxo-2,3-dihydro-7H-pyrido[1,2,3de][1,4]benzoxazine-6-carboxylic acid] | excellent antimicrobial agent | 5450 |  | 
2 | C[C@H]1COc2c(N3CCN(C)CC3)c(F)cc3c(=O)c(C(=O)O)cn1c23 [S-compound, S-(-)-9-fluoro-3-methyl-10-(4-methyl-1-piperazinyl)-7-oxo-2,3-dihydro-7H-pyrido[1,2,3de][1,4]benzoxazine-6-carboxylic acid] | potential antimicrobial activities |  | no decomposition was observed at all | high antimicrobial activities

Reference: US4923862A, “Topical preparation containing ofloxacin” (priority 1986, dated 1990)
